US20070010671A1, “Novel quinazoline derivatives and methods of treatment related to the use thereof” (priority 2003, published 2007)

Target: MCH receptor (Homo sapiens, UniProt Q99705)
Assay: High throughput functional screening FLIPR/FDSS6000: inhibition of MCH-evoked intracellular Ca2+ changes
Assay type: cell-based
Conditions: class by percent of control at 10^−7 M or by IC50; read-out: class
Text: Subsequently, a functional based assay was used to confirm the lead hits, referred to as FLIPR™ (the Fluorometric Imaging Plate Reader) and FDSS6000™ (Functional Drug Screening System). This assay utilized 3 non-endozenous, constitutively active version of the MCH receptor.
The FLIPR and FDSS assays are able to detect intracellular Ca^2+ concentration in cells, which can be utilized to assess receptor activation and determine whether a candidate compound is an, for example, antagonist, inverse agonist or agonist to a Gq-coupled receptor. The concentration of free Ca^2+ in the cytosol of any cell is extremely low, whereas its concentration in the extracellular fluid and endoplasmic reticulum (ER) is very high. Thus, there is a large gradient tending to drive Ca^2+ into the cytosol across both the plasma membrane and ER. The FLIPR™ and FDSS6000™ systems (Molecular Devices Corporation, HAMAMATSU Photonics K.K.) are designed to perform functional cell-based assays, such as the measurement of intracellular calcium for high-throughput screening, The measurement of fluorescent is associated with calcium release upon activation of the Gq-coupled receptors.
Fluorometric Imaging Plate Reader system was used to allow for rapid, kinetic measurements of intracellular fluorescence in 96 well microplates (or 384 well microplates). Simultaneous measurements of fluorescence in all wells can be made by FLIPR or FDSS6000™ every second with high sensitivity and precision. These systems are ideal for measuring cell-based functional assays such as monitoring the intracellular calcium fluxes that occur within seconds after activation of the Gq coupled receptor.
Briefly, the cells are seeded into 96 well at 5.5×10^4 cells/well with complete culture media (Dulbecco's Modified Eagle Medium with 10% fetal bovine serum, 2 mMi L-glutamine, 1 mM sodium pyruvate and 0.5 mg/ml G418, pH 7.4) for the assay next day. On the day of assay, the media is removed and the cells are incubated with 100 μl of loading buffer (4 μM Fluo4-AM in complete culture media containing 2.5 mM Probenicid, 0.5 mg/ml and 0.2% bovine serum albumin) in 5% CO2 incubator at 37° C. for 1 hr. The loading buffer is removed, and the cells are washed with wash buffer (Hank's Balanced Salt Solution containing 2.5 mM Probenicid, 20 mM HEPES, 0.5 mg/ml and 0.2% bovine serum albumm, pH 7.4)). One hundred fifty μl of wash buffer containing various concentrations of test compound is added to the cells, and the cells are incubated in 5% CO2 incubator at 37° C. for 3 min. Fifty μl of wash buffer containing various concentration of MCH are added to each well, and transient changes in [Ca^2+]i evokled bee MCH are monoitored using the FLIPR, or FDSS in 96 shell plates at Ex. 488 nm and Em. 530 nm for 290 second. When antagonist activity of compound is tested, 50 nM of MCH is used.
Use of FLIPR™ and FDSS6000™ can be accomplished by following manufacturer's instruction (Molecular Device Corporation and HAMAMATSU Photonics K.K.).

Structure (SMILES) | IC50 [nM]
COc1cc(CNC(=O)[C@H]2CC[C@@H](Nc3nc(N(C)C)c4cc(F)c(F)cc4n3)CC2)cc(OC)c1 [Example 993, cis-N-(3,5-dimethoxybenzyl)-4-{[4-(dimethylamino)-6,7-difluoroquinazolin-2-yl]amino}cyclohexanecarboxamide] | 50 to 200
COc1ccc(CNC(=O)[C@H]2CC[C@@H](Nc3nc(N(C)C)c4cc(F)c(F)cc4n3)CC2)cc1 [Example 994, cis-4-{[4-(dimethylamino)-6,7-difluoroquinazolin-2-yl]amino}-N-(4-methoxybenzyl)cyclohexanecarboxamide] | < 50
COc1cccc(CNC(=O)[C@H]2CC[C@@H](Nc3nc(N(C)C)c4cc(F)c(F)cc4n3)CC2)c1 [Example 995, cis-4-{[4-(dimethylamino)-6,7-difluoroquinazolin-2-yl]amino}-N-(3-methoxybenzyl)cyclohexanecarboxamide] | 50 to 200
CN(C)c1nc(N[C@H]2CC[C@@H](C(=O)NCc3ccc(Cl)nc3)CC2)nc2cc(F)c(F)cc12 [Example 996, cis-N-[(6-chloropyridin-3-yl)methyl]-4-{[4-(dimethylamino)-6,7-difluoroquinazolin-2-yl]amino}cyclohexanecarboxamide] | 50 to 200
CN(C)c1nc(N[C@H]2CC[C@@H](C(=O)NCc3ccc(F)cc3F)CC2)nc2cc(F)c(F)cc12 [Example 997, cis-N-(2,4-difluorobenzyl)-4-{[4-(dimethylamino)-6,7-difluoroquinazolin-2-yl]amino}cyclohexanecarboxamide] | > 200
CN(C)c1nc(N[C@H]2CC[C@@H](C(=O)NCc3cccc(C(F)(F)F)c3)CC2)nc2cc(F)c(F)cc12 [Example 998, cis-4-{[4-(dimethylamino)-6,7-difluoroquinazolin-2-yl]amino}-N-[3-(trifluoromethyl)benzyl]cyclohexanecarboxamide] | < 50
CN(C)c1nc(N[C@H]2CC[C@@H](C(=O)NCc3ccc(C(F)(F)F)cc3)CC2)nc2cc(F)c(F)cc12 [Example 999, cis-4-{[4-(dimethylamino)-6,7-difluoroquinazolin-2-yl]amino}-N-[4-(trifluoromethyl)benzyl]cyclohexanecarboxamide] | 50 to 200
CN(C)c1nc(N[C@H]2CC[C@@H](C(=O)NCc3ccc(Cl)cc3Cl)CC2)nc2cc(F)c(F)cc12 [Example 1000, cis-N-(2,4-dichlorobenzyl)-4-{[4-(dimethylamino)-6,7-difluoroquinazolin-2-yl]amino}cyclohexanecarboxamide] | < 50
CN(C)c1nc(N[C@H]2CC[C@@H](C(=O)NCc3cc(Cl)cc(Cl)c3)CC2)nc2cc(F)c(F)cc12 [Example 1001, cis-N-(3,5-dichlorobenzyl)-4-{[4-(dimethylamino)-6,7-difluoroquinazolin-2-yl]amino}cyclohexanecarboxamide] | < 50
CN(C)c1nc(N[C@H]2CC[C@@H](C(=O)NCc3ccc(Br)cc3)CC2)nc2cc(F)c(F)cc12 [Example 1002, cis-N-(4-bromobenzyl)-4-{[4-(dimethylamino)-6,7-difluoroquinazolin-2-yl]amino}cyclohexanecarboxamide] | < 50
CN(C)c1nc(N[C@H]2CC[C@@H](C(=O)NCc3ccccc3Br)CC2)nc2cc(F)c(F)cc12 [Example 1003, cis-N-(2-bromobenzyl)-4-{[4-(dimethylamino)-6,7-difluoroquinazolin-2-yl]amino}cyclohexanecarboxamide] | < 50
CN(C)c1nc(N[C@H]2CC[C@@H](C(=O)NCc3ccc(OC(F)(F)F)cc3)CC2)nc2cc(F)c(F)cc12 [Example 1004, cis-4-{[4-(dimethylamino)-6,7-difluoroquinazolin-2-yl]amino}-N-[4-(trifluoromethoxy)benzyl]cyclohexanecarboxamide] | < 50
CN(C)c1nc(N[C@H]2CC[C@@H](C(=O)NCc3cc(C(F)(F)F)cc(C(F)(F)F)c3)CC2)nc2cc(F)c(F)cc12 [Example 1005, cis-N-[3,5-bis(trifluoromethyl)benzyl]-4-{[4-(dimethylamino)-6,7-difluoroquinazolin-2-yl]amino}cyclohexanecarboxamide] | > 200
CN(C)c1nc(N[C@H]2CC[C@@H](C(=O)NCc3cccc(I)c3)CC2)nc2cc(F)c(F)cc12 [Example 1006, cis-4-{[4-(dimethylamino)-6,7-difluoroquinazolin-2-yl]amino}-N-(3-iodobenzyl)cyclohexanecarboxamide] | 50 to 200
Cc1ccc([C@H](C)NC(=O)[C@H]2CC[C@@H](Nc3nc(N(C)C)c4cc(F)c(F)cc4n3)CC2)cc1 [Example 1007, cis-4-{[4-(dimethylamino)-6,7-difluoroquinazolin-2-yl]amino}-N-[(1S)-1-(4-methylphenyl)ethyl]cyclohexanecarboxamide] | < 50
CN(C)c1nc(N[C@H]2CC[C@@H](NC(=O)Nc3cccc(OC(F)(F)F)c3)CC2)nc2ccccc12 [Example 1009, N-(cis-4-{[4-(dimethylamino)quinazolin-2-yl]amino}cyclohexyl)-N′-[3-(trifluoromethoxy)phenyl]urea] | < 50
COc1ccc(NC(=O)N[C@H]2CC[C@@H](Nc3nc(N(C)C)c4ccccc4n3)CC2)cc1OC [Example 1010, N-(3,4-dimethoxyphenyl)-N′-(cis-4-{[4-(dimethylamino)quinazolin-2-yl]amino}cyclohexyl)urea] | < 50
CN(C)c1nc(N[C@H]2CC[C@@H](NC(=O)Nc3ccccc3Cl)CC2)nc2ccccc12 [Example 1011, N-(2-chlorophenyl)-N′-(cis-4-{[4-(dimethylamino)quinazolin-2-yl]amino}cyclohexyl)urea] | 50 to 200
CN(C)c1nc(N[C@H]2CC[C@@H](NC(=O)Nc3c(Cl)cccc3Cl)CC2)nc2ccccc12 [Example 1012, N-(2,6-dichlorophenyl)-N′-(cis-4-{[4-(dimethylamino)quinazolin-2-yl]amino}cyclohexyl)urea] | > 200
CN(C)c1nc(N[C@H]2CC[C@@H](NC(=O)Nc3cccc(Cl)c3Cl)CC2)nc2ccccc12 [Example 1013, N-(2,3-dichlorophenyl)-N′-(cis-4-{[4-(dimethylamino)quinazolin-2-yl]amino}cyclohexyl)urea] | > 200
CN(C)c1nc(N[C@H]2CC[C@@H](NC(=S)Nc3ccccc3Br)CC2)nc2ccccc12 [Example 1014, N-(2-bromophenyl)-N′-(cis-4-{[4-(dimethylamino)quinazolin-2-yl]amino}cyclohexyl)thiourea] | 50 to 200
COc1ccccc1NC(=O)NC[C@H]1CC[C@@H](Nc2nc(N(C)C)c3ccccc3n2)CC1 [Example 1015, N-[(cis-4-{[4-(dimethylamino)quinazolin-2-yl]amino}cyclohexyl)methyl]-N′-(2-methoxyphenyl)urea] | 50 to 200
CCOc1ccccc1NC(=O)NC[C@H]1CC[C@@H](Nc2nc(N(C)C)c3ccccc3n2)CC1 [Example 1016, N-[(cis-4-{[4-(dimethylamino)quinazolin-2-yl]amino}cyclohexyl)methyl]-N′-(2-ethoxyphenyl)urea] | 50 to 200
COc1cccc(NC(=O)NC[C@H]2CC[C@@H](Nc3nc(N(C)C)c4ccccc4n3)CC2)c1 [Example 1017, N-[(cis-4-{[4-(dimethylamino)quinazolin-2-yl]amino}cyclohexyl)methyl]-N′-(3-methoxyphenyl)urea] | 50 to 200
COc1ccc(NC(=O)NC[C@H]2CC[C@@H](Nc3nc(N(C)C)c4ccccc4n3)CC2)cc1OC [Example 1018, N-(3,4-dimethoxyphenyl)-N′-[(cis-4-{[4-(dimethylamino)quinazolin-2-yl]amino}cyclohexyl)methyl]urea] | > 200
COc1ccc(NC(=O)NC[C@H]2CC[C@@H](Nc3nc(N(C)C)c4ccccc4n3)CC2)c(OC)c1 [Example 1019, N-(2,4-dimethoxyphenyl)-N′-[(cis-4-{[4-(dimethylamino)quinazolin-2-yl]amino}cyclohexyl)methyl]urea] | 50 to 200
COc1ccc(OC)c(NC(=O)NC[C@H]2CC[C@@H](Nc3nc(N(C)C)c4ccccc4n3)CC2)c1 [Example 1020, N-(2,5-dimethoxyphenyl)-N′-[(cis-4-{[4-(dimethylamino)quinazolin-2-yl]amino}cyclohexyl)methyl]urea] | 50 to 200
